The text below walks through data of patent US8957062B2, “Substituted cyclopropyl compounds, compositions containing such compounds and methods of treatment” (Merck Sharp & Dohme Corp., priority 2011, dated 2015).

In the first assay the target is T1, human GPR119 (Homo sapiens, UniProt Q8TDV5).
T1 sequence (Q8TDV5 1-308 limits assumed): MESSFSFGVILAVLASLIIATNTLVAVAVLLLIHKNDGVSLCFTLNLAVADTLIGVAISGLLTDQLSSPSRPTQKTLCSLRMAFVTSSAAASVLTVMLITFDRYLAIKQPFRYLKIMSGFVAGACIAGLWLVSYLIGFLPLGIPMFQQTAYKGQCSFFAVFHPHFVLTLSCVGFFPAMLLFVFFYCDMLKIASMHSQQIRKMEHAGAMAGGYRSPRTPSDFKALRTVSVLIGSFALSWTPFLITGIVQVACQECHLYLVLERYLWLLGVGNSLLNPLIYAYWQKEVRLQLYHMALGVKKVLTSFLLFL
Briefly: Measurement of GPR119 signaling (cAMP assay) in cells stably transfected with human GPR119. In kind it is cell-based. The conditions noted are these: cAMP stimulation; read-out: GPR119 HumC EC50. The method, then:
Measurement of GPR119 Signaling (Cyclic AMP (cAMP) Assay)
The adenylate cyclase assay was constructed following the LANCE™ cAMP Kit (Perkin Elmer, AD0264) instructions.
The reaction was stopped by incubating with the supplied detection buffer containing the europium chelate of the Eu-SA/Biotin-cAMP tracer for 3 hours. The assay was performed in duplicate in a 384 well plate for duplicate plates and fluorescence was measured at 665 nm. Basal activity was determined using a DMSO control and maximum response was defined as cAMP stimulation produced by an internal agonist control. Standard cAMP concentrations were assayed concurrently for conversion of fluorescence signal to cAMP level. The data was analyzed using 4-parameter curve fit in Microsoft Excel.
Measurement of GPR119 Signaling (cAMP Homogenous Time Resolved Fluorescence (HTRF) Assay)
Chinese hamster ovary (CHO) cell lines stably transfected with the permissive guanine nucleotide binding protein alpha 15 (Gα15) and murine GPR119 were maintained in DMEM media containing FBS, penicillin-streptomycin, puromycin, and G418 (geneticin). […] Agonist activation of the GPR119 receptor was measured in receptor transfected cells described above, treated with compounds of this invention, using a commercial homogenous time resolved fluorescence (HTRF) kit for measurement of cAMP (CisBio, Bedford, Mass.). The assay was performed in 96-well half-volume plates (murine) or 384-well plates (human) following the manufacturers instructions. Briefly, suspended cells were incubated with a dose titration of test compound at RT for 60 min, lysed, and incubated with HTRF reagents for an additional 60 min. The plate was read using an Envision multilabel reader (Perkin Elmer) adjusted to read time resolved fluorescence and the cAMP concentrations were extrapolated from a cAMP calibration curve. […] The concentration of test compound required to stimulate a half-maximal response (EC50), and efficacy as compared to an internal agonist control, was determined from a sigmoidal 4-parameter curve fit of the resulting plot of normalized activity versus compound concentration.
In general terms: Cyclic AMP is a second messenger, typically raised through Gs and lowered through Gi signalling.
Turning to `CC(C)c1noc(N2CCC([C@H]3C[C@H]3CCOc3cc(F)c(CC(=O)N4CCOCC4)c(F)c3)CC2)n1` [Example 114], the EC50 is 0.19 nM.
Turning to `COC1CN(C(=O)Cc2c(F)cc(OCC[C@@H]3C[C@@H]3C3CCN(c4nc(C(C)C)no4)CC3)cc2F)C1` [Example 113], the concentration for a half-maximal effect (EC50) was found to be 0.33 nM.
Still for that read-out and setting: for `CC1(OC(=O)N2CCC([C@H]3C[C@H]3CCOc3ccc(CC(=O)N4CCC4)c(C#N)c3)CC2)CC1` [Example 70] the value was 2.7 nM.
The same measure, in the same setting: for `CC(C)c1noc(N2CCC([C@H]3C[C@H]3CCOc3cc(F)c(CC(=O)N(C)C)cc3F)CC2)n1` [Example 75] the value was 0.6 nM.

The same assay, now with this note: stated in the example text without 'GPR119'; read-out: Human EC50.
As for `CN(C)C(=O)Cc1cc(F)c(OCC[C@@H]2C[C@@H]2C2CCN(C(=O)OC3(C)CC3)CC2)cc1F` [Example 62, 1-methylcyclopropyl 4-[(1R,2S)-2-(2-{4-[2-(dimethylamino)-2-oxoethyl]-2,5-difluorophenoxy}ethyl)cyclopropyl]piperidine-1-carboxylate], the EC50 is 2.2 nM.

Staying with this assay, now noted: stated in the example text; cAMP stimulation, human GPR119; read-out: GPR119 Human EC50.
On to `CCS(=O)(=O)c1ccc(OCC[C@H]2C[C@H]2C2CCN(c3nc(COC)no3)CC2)cc1F` (stereo in doubt) [Example 15, 4-((1S,2R)-2-{2-[4-(ethylsulfonyl)-3-fluorophenoxy]ethyl}cyclopropyl)-1-[3-(methoxymethyl)-1,2,4-oxadiazol-5-yl]piperidine], for which the half-maximal effective concentration (EC50) came to 8.4 nM.
On the same count and under the same terms, for `CC(C)c1nc(N2CCC([C@H]3C[C@H]3CCOc3ccc(CC(=O)N4CC(O)C4)c(F)c3)CC2)no1` [Example 255, 1-[(2-fluoro-4-{2-[(1S,2R)-2-{1-(5-isopropyl-1,2,4-oxadiazol-3-yl)piperidin-4-yl}cyclopropyl]ethoxy}phenyl)acetyl]azetidin-3-ol] the value was 1.6 nM; for `O=C(Cc1ccc(OCC[C@@H]2C[C@@H]2C2CCN(C(=O)OCC3CC3)CC2)cc1F)N1CCC1` [Example 61, cyclopropylmethyl-4-((1R,2S)-2-{2-[4-(2-azetidin-1-yl-2-oxoethyl)-3-fluorophenoxy]ethyl}cyclopropyl)piperidine-1-carboxylate], 2 nM; for `COCc1noc(N2CCC([C@H]3C[C@H]3CCOc3cc(F)c(CC(=O)N4CC(F)C4)c(F)c3)CC2)n1` [Example 116, 4-[(1R,2S)-2-(2-{3,5-difluoro-4-[2-(3-fluoroazetidin-1-yl)-2-oxoethyl]phenoxy}ethyl)cyclopropyl]-1-[3-(methoxymethyl)-1,2,4-oxadiazol-5-yl]piperidine], 1.4 nM.
The same measure, in the same setting: with `CC(C)c1noc(N2CCC([C@H]3C[C@H]3CCOc3ccc(-n4cnnn4)cc3)CC2)n1` [Example 98, 5-(4-((1R,2S)-2-(2-(4-(1H-tetrazol-1-yl)phenoxy)ethyl)cyclopropyl)piperidin-1-yl)-3-isopropyl-1,2,4-oxadiazole] the figure was 11.8 nM; with `CC(C)c1noc(N2CCC([C@H]3C[C@H]3CCOc3ccc(Cc4nnco4)c(F)c3)CC2)n1` [Example 256, 4-((1R,2S)-2-{2-[3-fluoro-4-(1,3,4-oxadiazol-2-ylmethyl)phenoxy]ethyl}cyclopropyl)-1-(3-isopropyl-1,2,4-oxadiazol-5-yl)piperidine], 2.5 nM.

The assay is the same for the next values; noted with them: table column; cAMP stimulation, human GPR119; read-out: GPR119 Human EC50.
With `COCc1noc(N2CCC([C@H]3C[C@H]3CCOc3ccc(CC(=O)N4CCC[C@@H]4C(F)(F)F)c(F)c3)CC2)n1` [Example 203], the half-maximal effective concentration (EC50) was 5.1 nM.
Same read-out and setting: with `Cc1cc(OCC[C@@H]2C[C@@H]2C2CCN(c3nc(C(C)C)no3)CC2)ccc1-n1cnnn1` [Example 124] the figure was 2.6 nM; with `CC(C)CC(=O)N1CCC([C@H]2C[C@H]2CCOc2ccc(-n3cnnn3)cc2)CC1` [Example 79], 7.7 nM; with `O=C(CCC(F)(F)F)N1CCC([C@H]2C[C@H]2CCOc2ccc(-n3cnnn3)cc2)CC1` [Example 78], 8.5 nM.
On the same count and under the same terms, for `CC(C)(C)COC(=O)N1CCC([C@H]2C[C@H]2CCOc2ccc(-n3cnnn3)cc2)CC1` [Example 9] the value was 15 nM; for `CC(C)(C)OC(=O)N1CCC([C@H]2C[C@H]2CCOc2cc(F)c(C(=O)C3CC3)c(F)c2)CC1` [Example 52], 0.2 nM; for `CC(C)(CC(=O)N1CCC([C@H]2C[C@H]2CCOc2ccc(-n3cnnn3)cc2)CC1)C1CC1` [Example 80], 4 nM.
The same measure, in the same setting: for `CCS(=O)(=O)c1ccc(OCC[C@@H]2C[C@@H]2C2CCN(C(=O)OC3(C)CC3)CC2)cc1` [Example 36] the value was 14.5 nM.
For `CC(C)OC(=O)N1CCC([C@H]2C[C@H]2CCOc2ccc(S(C)(=O)=O)c(F)c2)CC1` [Example 40], the concentration for a half-maximal effect (EC50) is 2.3 nM.
Same read-out and setting: for `COC1CN(C(=O)Cc2ccc(OCC[C@@H]3C[C@@H]3C3CCN(c4nc(C(C)C)no4)CC3)cc2F)C1` [Example 141] the value was 0.93 nM; for `CC(C)c1noc(N2CCC([C@H]3C[C@H]3CCOc3ccc(CC(=O)N4CCc5oncc5C4)c(F)c3)CC2)n1` [Example 177], 1.8 nM; for `CC(C)c1noc(N2CCC([C@H]3C[C@H]3CCOc3ccc(CC(=O)N4CCCCC4)c(F)c3)CC2)n1` [Example 145], 1.7 nM.
Same read-out and setting: for `Cc1nc2c(o1)CN(C(=O)Cc1ccc(OCC[C@@H]3C[C@@H]3C3CCN(c4nc(C(C)C)no4)CC3)cc1F)CC2` [Example 183] the value was 2.1 nM; for `CC(C)c1noc(N2CCC([C@H]3C[C@H]3CCOc3ccc(CC(=O)N4Cc5nnc(C(F)(F)F)n5C(C)(C)C4)c(F)c3)CC2)n1` [Example 185], 8.8 nM.
As to `CC(C)c1noc(N2CCC([C@H]3C[C@H]3CCOc3ccc(CC(=O)N(C)Cc4cscn4)c(F)c3)CC2)n1` [Example 166], the EC50 amounted to 2.6 nM.
Same read-out and setting: with `O=C(CC1(c2ccccc2)CCC1)N1CCC([C@H]2C[C@H]2CCOc2ccc(-n3cnnn3)cc2)CC1` [Example 83] the figure was 15 nM; with `CS(=O)(=O)c1ccc(OCC[C@@H]2C[C@@H]2C2CCN(C(=O)CC3CCCC3)CC2)nc1` [Example 88], 4.6 nM.
Turning to `Cc1cc(-n2cnnn2)cnc1OCC[C@@H]1C[C@@H]1C1CCN(C(=O)OCc2ccccc2)CC1` [Example 31], the EC50 amounted to 2.8 nM.
Take `CC(C)c1noc(N2CCC([C@H]3C[C@H]3CCOc3ccc(CC(=O)N4CC(O)(C(F)(F)F)C4)c(F)c3)CC2)n1` [Example 186]: the EC50 stood at 2.6 nM.
Still for that read-out and setting: with `CC(C)(C)CC(=O)N1CCC([C@H]2C[C@H]2CCOc2ccc(S(C)(=O)=O)c(F)c2)CC1` [Example 95] the figure was 5.4 nM.
On to `CC(C)c1noc(N2CCC([C@H]3C[C@H]3CCOc3ccc(CC(=O)N(C)C4CCOC4)c(F)c3)CC2)n1` (some centres unmarked) [Example 161], for which the half-maximal effective concentration (EC50) was determined as 1.1 nM.
Same read-out and setting: with `CC(C)c1noc(N2CCC([C@H]3C[C@H]3CCOc3ccc(CC(=O)NC4(C(F)(F)F)CC4)c(F)c3)CC2)n1` [Example 153] the figure was 4.3 nM; with `Cc1noc(N2CCC([C@H]3C[C@H]3CCOc3ccc(S(C)(=O)=O)cn3)CC2)n1` [Example 213], 11 nM; with `CS(=O)(=O)c1ccc(OCC[C@@H]2C[C@@H]2C2CCN(c3nc(C4CCC4)no3)CC2)nc1` [Example 212], 4.8 nM.
Same read-out and setting: with `Cc1nc(C#N)cc(OCC[C@@H]2C[C@@H]2C2CCN(c3nnc4ncccn34)CC2)n1` [Example 254] the figure was 25 nM; with `CS(=O)(=O)c1ccc(OCC[C@@H]2C[C@@H]2C2CCN(C(=O)CC3CCCC3)CC2)cc1F` [Example 93], 4.6 nM; with `CS(=O)(=O)c1ccc(OCC[C@@H]2C[C@@H]2C2CCN(C(=O)Cc3cccs3)CC2)nc1` [Example 91], 36 nM.
The same measure, in the same setting: for `CC(C)c1noc(N2CCC([C@H]3C[C@H]3CCOc3ccc(CC(=O)N4CCC(F)(F)CC4)c(F)c3)CC2)n1` [Example 148] the value was 1.7 nM; for `CC(C)c1noc(N2CCC([C@H]3C[C@H]3CCOc3ccc(CC(=O)N4CC(F)(F)C4)c(F)c3)CC2)n1` [Example 147], 0.55 nM.

The assay is the same for the next values; noted with them: unit inferred; read-out: GPR119 Human EC50.
For the compound `Cc1nnc(-c2ccc(OCC[C@@H]3C[C@@H]3C3CCN(C(=O)OC(C)(C)C)CC3)cc2F)o1` [Example 50], the EC50 was 1.8 nM.

What is called EC50 is the concentration at which the effect is half-maximal.
